Results published in patent US6710030B1, “Contortrostain (CN) and methods for its use in preventing metastasis and other conditions” (University of Southern California, priority 1993, dated 2004).
Several values for one entry are separate records, joined by “and”; a condition that tells them apart may be missing. Equal values may be shown once.

Columns and labels:
[1] = system: coronary artery thrombosis; conditions: with recombinant tPA and heparin; cited from earlier work
[2] = system: canine carotid artery thrombosis model; test: Reoccluding canine carotid artery thrombosis model; type: in vivo
Source text: The model of carotid artery thrombosis in the anesthetized canine described is a modification of one developed for the study of experimentally-induced coronary artery thrombosis [Romson, J. L. et al., Thromb. Res. 17:841 (1980)]. The experimental procedure results in the formation of a platelet rich intravascular thrombus at the site of an electrolytically-induced endothelial lesion in proximity to a distal arterial stenosis. The carotid artery is selected for the experimental model, thereby allowing one vessel to be used as a control and the other to be used after administration of the thrombolytic and antithrombotic therapy. APSAC (anisoylated plasminogen streptokinase activator complex) has been used as the thrombolytic agent successfully in this model. […] The lytic-antithrombotic combination of agents may then be administered to only one of the occluded vessels; this allows for an internal control and eliminates those animals that may not form thrombi due to causes unrelated to the vessel wall injury and subsequent occlusive thrombus formation, i.e., low circulating platelet counts, enhanced spontaneous thrombolysis, presence of heart worms, etc. Parameters which are recorded include repeated measures of: phasic and mean carotid artery blood flow velocity using an ultrasonic flow probe, time to thrombotic occlusion, time to recannulization, ex vivo platelet aggregation, prothrombin time, thrombin time, activated partial thromboplastin time, red cell and white cell counts, hematocrit, EKG profile and body temperature, before and after administration of APSAC or APSAC plus CN to separate groups of animals.
Conditioned male mongrel dogs (8-10 kg) have been used for all in vivo studies. Dogs are anesthetized with sodium pentobarbital, intubated and allowed to breath room air under positive pressure respiration. Arterial blood gasses and pH determinations are made every 45 minutes and appropriate adjustments made to maintain the blood gasses and arterial pH within normal limits. Both common carotid arteries and the right internal jugular vein are exposed. A catheter is inserted into the jugular vein for blood sampling and administration of the test drug. Arterial blood pressure is monitored from the cannulated femoral artery with the use of a blood pressure transducer. A Doppler flow probe is placed on each common carotid artery proximal to both the point of insertion of the intraarterial electrode and the mechanical constrictor. […] Blood flow velocity in the carotid vessels is monitored continuously. […]
Electrolytic injury to the intimal surface of each carotid vessel is accomplished with the use of an intravascular electrode. […] The current delivered to each vessel is monitored continuously and maintained at 300 μA. […]

MDA-MB-435 cells [3] = test: Binding of MDA-MB-435 cells to immobilized CN; type: cell-based, human; conditions: CN at 0.1 μg/well; read-out: IC50 for blocking binding of MDA-MB-435 cells to immobilized CN
Method: The effect of CN on binding of highly metastatic human breast cancer cells, MDA-MB-435 cell line, to ECM proteins was examined. Human fibronectin and vitronectin were immobilized in the wells of 96-well microtiter plates. […] In a variation of the above experiments, CN was immobilized. […] Referring to FIGS. 12 and 13, varying concentrations of GRGDSP (FIG. 12) or EDTA (FIG. 13) were used to inhibit binding of human mammary carcinoma cells to immobilized CN. CN was at 0.1 μg/well. The vertical line at each data point indicates the y-axis error bar. All experiments were conducted as three sets of triplicates for each data point.

MDA-MB-435 cells [4] = test: Phosphotyrosine immunoblot, MDA-MB-435 cells; type: cell-based, human
Method: (§1) Cell culture, preparation and stimulation—T24 cells were maintained in RPMI 1640 medium containing 5% fetal bovine serum, and MDA-MB-435 and 293 cells were maintained in Dulbecco's modified Eagle's medium with 10% serum at 37° C. in 5% CO2. Cells were washed with phosphate-buffered saline (PBS) and starved in the appropriate serum-free medium for 6 h at 37° C. Cells were detached by brief treatment with 0.05% trypsin/0.02% EDTA in PBS and collected by centrifugation, resuspended in soybean trypsin inhibitor (1 mg/ml in serum-free medium), and washed in 2% bovine serum albumin/serum-free medium. Cells were maintained in suspension for 1 h in 2% bovine serum albumin/serum-free medium at 37° C. with end-over-end agitation. Quiescent cells (3×10^6/ml) were treated with disintegrins or other reagents while in suspension, or were allowed to adhere to Matrigel (Becton Dickinson, Bedford, Mass.) diluted 1:100 with serum-free medium during treatment.
Lysate preparation and immunoprecipitation—Suspended and adherent cells were washed twice with cold PBS and lysed in cold lysis buffer (50 mM Tris, pH 8.0, 150 mM NaCl, 1% Nonidet P-40, 0.5% deoxycholate, 0.1% SDS, protease inhibitor cocktail, 1 mM sodium pyrophosphate, 1 mM sodium orthovanadate, 50 mM sodium fluoride). After 10-15 min incubation on ice, insoluble material was removed by centrifugation at 14,000 RPM in a microcentrifuge for 15 min. Supernatants were collected and total protein concentrations standardized by the BCA protein assay (Pierce, Rockford, Ill.). Immunoprecipitation was carried out by incubating whole cell lysates (200 μg total protein) with 1.25 μg anti-FAK or anti-CAS mAb 4-6 h at 4° C. followed by 20 μl protein G-agarose overnight at 4° C. Immunoprecipitates were washed 4 times in lysis buffer without inhibitors and dissociated by adding SDS-PAGE sample buffer and boiling 5 min. Whole cell lysates (30 μg total protein) or immunoprecipitates were resolved by 7.5% SDS-polyacrylamide gel electrophoresis and transferred to nitrocellulose membranes. […]

[5] = system: acute thrombotic reocclusion; conditions: added to heparin plus tPA; cited from earlier work
platelets = conditions: measured by e.g. serotonin release from dense granules; cited from earlier work
T24 cells = test: Phosphotyrosine immunoblot, T24 cells; type: cell-based, human; conditions: pretreated 30 min, 10 nM contortrostatin
Method: as §1
Lysate preparation and immunoprecipitation—Suspended and adherent cells were washed twice with cold PBS and lysed in cold lysis buffer (50 mM Tris, pH 8.0, 150 mM NaCl, 1% Nonidet P-40, 0.5% deoxycholate, 0.1% SDS, protease inhibitor cocktail, 1 mM sodium pyrophosphate, 1 mM sodium orthovanadate, 50 mM sodium fluoride). […]

Molecule: kistrin
- effective dose sufficient to prevent reocclusion [1]: 4 µg/kg/min

Molecule: anisoylated plasminogen streptokinase activator complex [APSAC]
- RCA Thrombus, weight of residual thrombus, individual dog ([2]; Dog # 1-6, listed as APSAC Control): 27.3 mg and 47.6 mg and 90.5 mg and 60.1 mg and 67.5 mg and 78.5 mg
- carotid artery patency after infusion ([2]; dog, in vivo): reoccluded and remained closed for the duration of the study
- RCA Thrombus, weight of residual thrombus, Mean ([2]; group mean): 61.9 mg
- Thrombus weight per kg (dog weight) ([2]; group mean): 4.1

Molecule: O=C(O)CN(CCN(CC(=O)O)CC(=O)O)CC(=O)O [EDTA]
- IC50 (MDA-MB-435 cells [3]): 800 µM

Molecule: echistatin (QCESGPCCRNCKFLKEGTICKRARGDDMDDYCNGKTCDCPRNPHKGPAT) [reference compound]
- effect on contortrostatin (10 nM)-induced tyrosine phosphorylation (MDA-MB-435 cells [4]; 1 μM, added simultaneously, 10 min): completely abrogated
- effect alone on tyrosine phosphorylation (MDA-MB-435 cells [4]; concentrations up to 1 μM): no effect on tyrosine phosphorylation
- incidence of acute thrombotic reocclusion [5]: dramatic reductions in the incidence of acute thrombotic reocclusion

Molecule: applaggin
- platelet release (platelets): also inhibits platelet release

Molecule: Cc1ccc(-c2nn(C(C)(C)C)c3ncnc(N)c23)cc1 [PP1, reference compound]
- concentration for complete inhibition of contortrostatin-induced tyrosine phosphorylation (MDA-MB-435 cells [4]; pretreated 30 min, 10 nM contortrostatin): 10 µM
- concentration for complete elimination of contortrostatin-induced signals (T24 cells): 100 µM
